Laboratory results: patent US20230346792A1, “COMPOSITIONS AND METHODS FOR TREATING LUNG INFLAMMATION” (Hoth Therapeutics, Inc., priority 2020, published 2023)

Experiments:
Covid-19 patients = assay: Randomized double-blind placebo-controlled clinical study of aprepitant injectable emulsion in Covid-19 positive patients; assay type: in vivo, human; settings: aprepitant injectable emulsion (e.g., Cinvanti) daily (QD), 14 days, comparator saline placebo, including severe to critical patients
Description: One group of patients receives saline placebo daily for a desirable period of time (e.g., 14 days) with normal management and care, and the other group of patients receives aprepitant injectable emulsion (e.g., Cinvanti®) daily (QD) during the same period of time (e.g., 14 days).

[1] = system: NSCLC squamous cell carcinoma; settings: one patient with history of COPD and NSCLC squamous cell carcinoma; aprepitant combined with radiotherapy; cited from earlier work
NK1R = target: T1, NK1R (Rattus norvegicus, UniProt P14600); settings: asthma model; cited from earlier work
T1 construct: host or cells: living animal of an asthma model (endogenous receptor)

Neurokinin-1 receptor = target: T2, Neurokinin-1 receptor (Homo sapiens, UniProt P25103); settings: lung cancer; cited from earlier work
T2 construct: host or cells: treated subjects (endogenous receptor)

[2] = system: nociception induced by capsaicin (TRPV1) or AITC (TRPA1); settings: capsaicin (via TRPV1) or AITC (via TRPA1), rat peritoneum; cited from earlier work
[3] = in vivo; cited from earlier work

T2 sequence (P25103 whole entry): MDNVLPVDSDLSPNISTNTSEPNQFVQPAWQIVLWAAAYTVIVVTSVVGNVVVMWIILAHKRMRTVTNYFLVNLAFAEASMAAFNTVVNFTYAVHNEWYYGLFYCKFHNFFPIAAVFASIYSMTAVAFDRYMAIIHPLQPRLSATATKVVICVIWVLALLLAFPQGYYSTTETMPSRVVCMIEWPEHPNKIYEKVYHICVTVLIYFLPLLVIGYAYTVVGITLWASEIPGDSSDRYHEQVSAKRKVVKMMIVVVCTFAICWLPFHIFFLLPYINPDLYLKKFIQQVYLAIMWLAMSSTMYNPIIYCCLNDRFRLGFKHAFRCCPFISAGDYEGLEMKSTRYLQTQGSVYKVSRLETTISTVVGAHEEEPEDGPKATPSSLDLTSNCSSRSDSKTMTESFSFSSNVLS
T1 sequence (P14600 whole entry): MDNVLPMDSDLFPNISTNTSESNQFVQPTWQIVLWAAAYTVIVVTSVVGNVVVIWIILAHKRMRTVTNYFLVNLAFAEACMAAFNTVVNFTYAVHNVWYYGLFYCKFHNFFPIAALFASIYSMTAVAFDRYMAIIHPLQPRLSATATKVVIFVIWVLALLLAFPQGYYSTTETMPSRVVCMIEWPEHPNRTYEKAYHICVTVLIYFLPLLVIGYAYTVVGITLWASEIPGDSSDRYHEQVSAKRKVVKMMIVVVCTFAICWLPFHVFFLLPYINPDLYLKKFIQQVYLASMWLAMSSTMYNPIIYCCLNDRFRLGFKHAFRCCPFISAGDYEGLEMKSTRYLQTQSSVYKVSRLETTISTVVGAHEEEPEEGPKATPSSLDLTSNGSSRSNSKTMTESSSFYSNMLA

| Compound | effectiveness in treating Covid-19 patients versus placebo (Covid-19 patients) | treatment outcome of lung cancer patient [1] | lung inflammation and inflammatory cytokines (NK1R) | cough frequency (Neurokinin-1 receptor) | nociception induced by capsaicin or AITC [2] | adverse effects of chronic treatment [3] |
| --- | --- | --- | --- | --- | --- | --- |
| C[C@@H](O[C@H]1OCCN(Cc2nc(=O)[nH][nH]2)[C@H]1c1ccc(F)cc1)c1cc(C(F)(F)F)cc(C(F)(F)F)c1 [aprepitant] | more effective in treating Covid-19 patients | successfully treated | reduced lung inflammation and inflammatory cytokines | reduction in cough frequency | able to reduce nociception | – |
| C#Cc1cccc(Nc2ncnc3cc(OCCOC)c(OCCOC)cc23)c1 [erlotinib] | – | – | – | – | – | induces hypomagnesemia, thereby triggering SP-mediated oxidative/inflammation stress and mild-to-moderate cardiac dysfunction |
| C=C(C)[C@]12C[C@@H](C)[C@@]34O[C@](Cc5ccccc5)(O[C@@H]1[C@@H]3C=C(COC(=O)Cc1ccc(O)c(OC)c1)C[C@]1(O)C(=O)C(C)=C[C@@H]41)O2 [resiniferatoxin] | – | – | – | – | able to reduce nociception | – |
